Consider 19 molecules from patent EP1203770A1 (priority 1992, dated 1994).

Where “and” joins values, the source holds several entries; their conditions need not be identical. Identical values can stand only once. Where only a bound is given, the exact number is not on record here.

Usually Ki stands for the dissociation constant of the complex between target and ligand, obtained from inhibition or displacement. A word on the IC50: it is the concentration at which inhibition is half-maximal. High values mean lower potency, low ones higher potency.

The target in the experiment is T1, HIV-1 protease (Human immunodeficiency virus type 1 group M subtype B, UniProt P04585).
T1 construct: The protease (or proteinase), consisting of only 99 amino acids, is among the smallest enzymes known
The experiment can be described thus: In vitro HIV protease inhibitory assay (HIV Protease FITC Assay). Format: biochemical. The conditions noted are these: for inhibition at 1 µM: HIV-1 Dose 1.000 uM; for inhibition at 1 µM / inhibition at 10 µM / inhibition at 100 µM / inhibition at 0.41 µM / inhibition at 1.23 µM / inhibition at 3.7 µM / inhibition at 11 µM / inhibition at 33 µM / inhibition at 0.123 µM / inhibition at 0.37 µM / inhibition at 1.1 µM / inhibition at 3.3 µM / inhibition at 30 µM: read-out: HIV-1 Protease % Inhib; for Ki: read-out: HIV-1 FITC Ki; for inhibition at 0.41 µM: HIV-1 Dose 0.410 uM; for inhibition at 1.23 µM: HIV-1 Dose 1.230 uM; for inhibition at 3.7 µM: HIV-1 Dose 3.700 uM; for inhibition at 11 µM: HIV-1 Dose 11.000 uM; for inhibition at 33 µM: HIV-1 Dose 33.000 uM; for inhibition at 0.123 µM: HIV-1 Dose 0.123 uM; for inhibition at 0.37 µM: HIV-1 Dose 0.370 uM; for inhibition at 1.1 µM: HIV-1 Dose 1.100 uM; for inhibition at 3.3 µM: HIV-1 Dose 3.300 uM; for inhibition at 30 µM: HIV-1 Dose 30.000 uM. The procedure, abridged: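 Percent inhibition was read as fluorescence after avidin-bead capture and filtration separated FITC cleavage product from biotinylated substrate. Enzyme and substrate reacted 1 h, RT, dark, at pH 5.5 (0.1 M sodium acetate, 1.0 M NaCl, 0.05% NP-40).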

For the molecule `CC(C)(C)OC(=O)CCc1cc(O)c(C(c2ccccc2)C2CC2)c(=O)o1` (centres unmarked) [Example 42, 3-(5-(Cyclopropyl-phenyl-methyl)-4-hydroxy-6-oxo-6H-pyran-2-yl)-propionic acid tert-butyl ester], the inhibition at 1 µM was determined as 19.7% and the Ki came to 520 nM. Further, the inhibition at 10 µM (HIV-1 Dose 10.000 uM) worked out at 74.7%. Moreover, where the note is “HIV-1 Dose 100.000 uM”, the inhibition at 100 µM is 105%.
For the molecule `CCC(c1ccccc1)c1c(O)cc(Cc2ccccc2)oc1=O` (stereo not drawn) [Example 2, 6-benzyl-3-(α-ethylbenzyl)-4-hydroxy-2H-Pyran-2-one], the inhibition at 1 µM was under 10%. For the same molecule, the inhibition at 10 µM (HIV-1 Dose 10.000 uM) is 38.7%. The inhibition at 100 µM (HIV-1 Dose 100.000 uM) was determined as 74.3%.
With `CCC(Cc1c(C)noc1C)c1cc(O)c(C(c2ccccc2)C2CC2)c(=O)o1` (centres unmarked) [Example 54, 3-(Cyclopropyl-phenyl-methyl)-6(1-(3,5-dimethyl-isoxazol-4-ylmethyl)-propyl)-4-hydroxy-pyran-2-one], the inhibition at 0.41 µM is 85%, the inhibition at 1.23 µM was 95.8%, the inhibition at 3.7 µM is 109% and the inhibition at 11 µM was 113%. Also, the inhibition at 33 µM came to 117% and the Ki worked out at 72 nM. The inhibition at 100 µM (HIV-1 Dose 100.000 uM) turned out to be 100%.
On to `CC(C)Cc1cc(O)c(C(c2ccccc2)C2CC2)c(=O)o1` (centres unmarked) [Example 75, 3-(Cyclopropyl-phenyl-methyl)-4-hydroxy-6-isobutyl-pyran-2-one], for which the inhibition at 0.123 µM came to 11.5%, the inhibition at 0.37 µM worked out at 33.8%, the inhibition at 1.1 µM was found to be 66% and the inhibition at 3.3 µM came out at 86.6%. Further, the inhibition at 30 µM amounted to 104% and the inhibition constant (Ki) stood at 127 nM. For the same molecule, the inhibition at 10 µM (HIV-1 Dose 10.000 uM) worked out at 98.5%.
Turning to `CCC(C1=C(O)CC2(CCC3(CC2)OCCO3)OC1=O)c1ccccc1` (centres unmarked) [Example 114, 12-Hydroxy-11-(1-phenyl-propyl)-1,4,9-trioxa-dispiro[4.2.5.2]pentadec-11-en-10-one], the inhibition at 0.41 µM is under 10%, the inhibition at 1.23 µM was under 10%, the inhibition at 3.7 µM was found to be 25.8% and the inhibition at 11 µM came out at 63.5%. Further, the inhibition at 33 µM came to 67.5% and the Ki amounted to 4290 nM. The inhibition at 100 µM (HIV-1 Dose 100.000 uM) worked out at 55.4%.
`CCS(=O)(=O)Nc1cccc(C(c2c(O)cc(C(CC3CC3)CC3CCCOC3)oc2=O)C2CC2)c1` (centres unmarked) [Example 244]: the inhibition at 0.123 µM was determined as 20.7%, the inhibition at 0.37 µM was 57.9%, the inhibition at 1.1 µM was determined as 81.9% and the inhibition at 3.3 µM is 90.6%. The inhibition at 30 µM is 99.4% and the Ki worked out at 15.4 nM. For the same molecule, the inhibition at 10 µM (HIV-1 Dose 10.000 uM) is 103%.
Consider `O=C(CCn1ccc2ccccc21)Nc1cccc(C(c2c(O)cc(C(CC3CC3)CC3CC3)oc2=O)C2CC2)c1` (centres unmarked) [Example 39, N-(3-(Cyclopropyl-[6-(2-cyclopropyl-1-cyclopropylmethyl-ethyl)-4-hydroxy-2-oxo-2H-pyran-3-yl]-methyl)-phenyl)-3-indol-1-yl-propionamide], for which the inhibition at 0.123 µM is under 10%, the inhibition at 0.37 µM came out at 24.8%, the inhibition at 1.1 µM was 60.6% and the inhibition at 3.3 µM amounted to 86.3%. For the same molecule, the inhibition at 30 µM was 94.5% and the Ki turned out to be 96 nM. Also, the inhibition at 10 µM (HIV-1 Dose 10.000 uM) is 91.8%.
In the case of `CCC(CCc1ccsc1)c1cc(O)c(C(c2ccccc2)C2CC2)c(=O)o1` (centres unmarked) [Example 71, 3-(Cyclopropyl-phenyl-methyl)-6-(1-ethyl-3-thiophen-3-yl-propyl)-4-hydroxy-pyran-2-one], the inhibition at 0.123 µM was found to be 11.6%, the inhibition at 0.37 µM worked out at 46.3%, the inhibition at 1.1 µM is 75% and the inhibition at 3.3 µM amounted to 84%. Besides, the inhibition at 30 µM is 96.4% and the inhibition constant Ki stood at 54 nM. Besides, the inhibition at 10 µM (HIV-1 Dose 10.000 uM) is 95.3%.
Turning to `CCC(Cc1ccccc1)c1cc(O)c(C(c2cccc(NC(=O)NS(=O)(=O)c3ccccc3)c2)C2CC2)c(=O)o1` (stereo not drawn) [Example 216, 3-(α-Cyclopropyl-meta-[(phenylsulfonylaminocarbonyl)amino]benzyl)-6-(α-ethylphenethyl)-4-hydroxy-2H-pyran-2-one], the inhibition at 0.123 µM is under 10%, the inhibition at 0.37 µM stood at 29.8%, the inhibition at 1.1 µM came to 61.1% and the inhibition at 3.3 µM is 85.6%. Moreover, the inhibition at 30 µM was found to be 90.5% and the Ki came out at 122 nM. Also, the inhibition at 10 µM (HIV-1 Dose 10.000 uM) worked out at 91.5%.
As to `O=c1oc(CCC2OCCO2)cc(O)c1C(c1ccccc1)C1CC1` (centres unmarked) [Example 47, 3-(Cyclopropyl-phenyl-methyl)-6-(2-(1,3)dioxolan-2-yl-ethyl)-4-hydroxy-pyran-2-one], the inhibition at 0.41 µM is under 10%, the inhibition at 1.23 µM is 19.4%, the inhibition at 3.7 µM amounted to 50% and the inhibition at 11 µM amounted to 73.2%. Moreover, the inhibition at 33 µM came to 91.3% and the Ki is 505 nM. Also, the inhibition at 100 µM (HIV-1 Dose 100.000 uM) came to 107%.
Consider `CCC(CCC1OCCCO1)c1cc(O)c(C(c2ccccc2)C2CC2)c(=O)o1` (centres unmarked) [Example 65, 3-(Cyclopropyl-phenyl-methyl)-6-(3-(1,3)dioxan-2-yl-1-ethyl-propyl)-4-hydroxy-pyran-2-one], for which the inhibition at 0.123 µM is under 10%, the inhibition at 0.37 µM is 28%, the inhibition at 1.1 µM is 71.2% and the inhibition at 3.3 µM turned out to be 93.2%. Moreover, the inhibition at 30 µM is 122% and the inhibition constant (Ki) came out at 141 nM. In addition, for the setting “HIV-1 Dose 10.000 uM”, the inhibition at 10 µM was determined as 107%.
For `CCC(CC1CCCCN1S(=O)(=O)c1ccc(C)cc1)c1cc(O)c(C(c2ccccc2)C2CC2)c(=O)o1` (centres unmarked) [Example 140, 2-[2-(3-(Cyclopropylphenylmethyl)-4-hydroxy-2-oxo-2H-pyran-6-yl]butyl]-1-[(4-methylphenyl)sulfonyl]-piperidine], the inhibition at 0.123 µM was under 10%, the inhibition at 0.37 µM was 10.5%, the inhibition at 1.1 µM amounted to 38.6% and the inhibition at 3.3 µM amounted to 70.2%. The inhibition at 30 µM was found to be 77.1%. The inhibition at 10 µM (HIV-1 Dose 10.000 uM) was found to be 81.6%.
In the case of `O=c1oc(CCc2ccc(Br)cc2)cc(O)c1C(c1ccccc1)C1CC1` (stereo not drawn) [Example 167, 3-(α-cyclopropylbenzyl)-4-hydroxy-6-(p-bromophenethyl)-2H-pyran-2-one], the inhibition at 0.123 µM was under 10%, the inhibition at 0.37 µM was under 10%, the inhibition at 1.1 µM was 18.4% and the inhibition at 3.3 µM was 37.1%. The inhibition at 30 µM came out at 81.1%. Besides, where the note is “HIV-1 Dose 10.000 uM”, the inhibition at 10 µM is 60.4%.
Turning to `O=c1oc(CCCCl)cc(O)c1C(c1ccccc1)C1CC1` (centres unmarked) [Example 53, 6-(3-Chloro-propyl)3-(cyclopropyl-phenyl-methyl)-4-hydroxy-pyran-2-one], the inhibition at 0.41 µM worked out at 19.4%, the inhibition at 1.23 µM stood at 47.5%, the inhibition at 3.7 µM stood at 86% and the inhibition at 11 µM came out at 102%. The inhibition at 33 µM amounted to 117% and the Ki worked out at 220 nM. In addition, for the setting “HIV-1 Dose 100.000 uM”, the inhibition at 100 µM was determined as 120%.
In the case of `C=CC(c1ccccc1)c1c(O)cc(CCc2ccccc2)oc1=O` (stereo not drawn) [Example 12, 4-hydroxy-6-phenethyl-3-(α-vinylbenzyl)-2H-Pyran-2-one], half-maximal inhibition (IC50) was put at 5400 nM and the inhibition at 1 µM is 17.5%. Besides, the inhibition at 10 µM (HIV-1 Dose 10.000 uM) came out at 67.4%. For the same molecule, where the note is “HIV-1 Dose 100.000 uM”, the “HIV-1 Protease % Inhib” value is 107% and the inhibition at 100 µM is 107%.
In the case of `CCC(Cc1ccccc1)c1cc(O)c(C(c2cccc(NS(=O)(=O)c3ccc(C#N)cc3)c2)C2CC2)c(=O)o1` (stereo not drawn) [Example 184, 3-(α-Cyclopropyl-meta-(4-cyanophenylsulfonylamino)benzyl)-6-(α-ethylphenethyl)-4-hydroxy-2H-pyran-2-one], the inhibition at 0.123 µM was 65%, the inhibition at 0.37 µM is 87%, the inhibition at 1.1 µM turned out to be 94.5% and the inhibition at 3.3 µM is 99%. The inhibition at 30 µM came out at 102% and the inhibition constant Ki stood at 5.7 nM. Where the note is “HIV-1 Dose 10.000 uM”, the inhibition at 10 µM was found to be 102%.
On to `CCC(CCCc1ccccc1)c1cc(O)c(C(c2ccccc2)C2CC2)c(=O)o1` (centres unmarked) [Example 93, 3-(Cyclopropyl-phenyl-methyl)-6-(1-ethyl-4-phenyl-butyl)-4-hydroxy-pyran-2-one], for which, under “HIV-1 Dose 10.000 uM”, the “HIV-1 Protease % Inhib” value was 67.65% and 71.27%; the inhibition at 10 µM worked out at 72.6%. In addition, for the setting “HIV-1 Dose 100.000 uM”, the “HIV-1 Protease % Inhib” value was 59.48% and 67.68%; the inhibition at 100 µM is 79.3%. The “HIV-1 Protease % Inhib” value (dose not given) is on record as under 10%.
Regarding `CCC(c1ccccc1)c1c(O)cc(CCC2CC2)oc1=O` (centres unmarked) [Example 96, 6-(2-Cyclopropyl-ethyl)-4-hydroxy-3-(1-phenyl-propyl)-pyran-2-one], the inhibition at 1 µM came out at 27.9% and the inhibitory constant (Ki) was 1400 nM. For the setting “HIV-1 Dose 10.000 uM”, the inhibition at 10 µM was 77%. Besides, the inhibition at 100 µM (HIV-1 Dose 100.000 uM) turned out to be 90.5%.
On to `CCC1(CC)CC(=O)C(CCCc2ccccc2)C(=O)O1` (centres unmarked) [Example 27, 6,6-Diethyl-3-(3-phenylpropyl)-tetrahydropyran-2,4-dione], for which the inhibition at 1 µM was 14.7%. Further, the inhibition at 10 µM (HIV-1 Dose 10.000 uM) amounted to 41.4%. For the same molecule, the inhibition at 100 µM (HIV-1 Dose 100.000 uM) stood at 90.5%.
